Test results from US5856503A, “Aminoalkyl-substituted benzo-heterocyclic compounds” (Hoffmann-La Roche Inc., priority 1995, dated 1999).
Values after ≈ are worked out from the molar mass of the structure shown. Where two headings read alike, the source gives them in different places.

Tests used:
[1] = target: T1, human liver microsomal 2,3-oxidosqualene-lanosterol cyclase (OSC) (Homo sapiens, UniProt P48449); assay: Inhibition of human liver microsomal 2,3-oxidosqualene-lanosterol cyclase (OSC); assay type: biochemical; conditions: for inhibition at 0.1 µM: 100 nM test substance, 1 hour at 37° C., against controls; for IC50: pH 7.4, 1 hour at 37° C., read-out: IC50 (OSC, conversion of MOS into lanosterol)
T1 construct: Liver microsomes from a healthy volunteer were prepared in sodium phosphate buffer (pH 7.4); from tissue; host or cells: liver microsomes from a healthy human volunteer
T1 sequence (P48449 1-732): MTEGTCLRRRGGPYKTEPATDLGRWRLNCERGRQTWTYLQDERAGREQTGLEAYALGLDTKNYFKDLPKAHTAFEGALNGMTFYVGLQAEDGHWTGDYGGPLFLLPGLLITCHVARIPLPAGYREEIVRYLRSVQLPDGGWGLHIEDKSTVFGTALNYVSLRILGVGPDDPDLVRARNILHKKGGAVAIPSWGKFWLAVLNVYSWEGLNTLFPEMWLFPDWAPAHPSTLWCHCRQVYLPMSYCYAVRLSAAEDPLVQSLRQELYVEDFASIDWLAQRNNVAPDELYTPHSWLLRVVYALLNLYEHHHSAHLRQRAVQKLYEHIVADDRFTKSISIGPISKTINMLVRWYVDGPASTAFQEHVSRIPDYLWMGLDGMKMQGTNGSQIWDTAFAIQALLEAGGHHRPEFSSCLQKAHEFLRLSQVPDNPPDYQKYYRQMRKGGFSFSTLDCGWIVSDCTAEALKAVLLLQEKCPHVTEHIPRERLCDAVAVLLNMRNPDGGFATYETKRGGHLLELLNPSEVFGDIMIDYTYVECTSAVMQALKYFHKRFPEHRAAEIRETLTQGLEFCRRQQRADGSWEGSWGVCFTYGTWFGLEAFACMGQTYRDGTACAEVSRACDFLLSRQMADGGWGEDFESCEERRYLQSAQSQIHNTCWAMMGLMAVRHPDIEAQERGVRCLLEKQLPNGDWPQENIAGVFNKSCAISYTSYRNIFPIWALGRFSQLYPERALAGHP
Procedure: Inhibition of human liver microsomal 2,3-oxidosqualene-lanosterol cyclase (OSC)
Liver microsomes from a healthy volunteer were prepared in sodium phosphate buffer (pH 7.4). The OSC activity was measured in the same buffer which also contained 1 mM EDTA and 1 mM dithiothreitol. The microsomes were diluted to 0.8 mg/ml protein in cold phosphate buffer. Dry [^14 C]R,S-monooxidosqualene (MOS; 12.8 μCi/mmol) was diluted to 20 nCi/μl with ethanol and mixed with phosphate buffer-1% BSA (Bovine Serum Albumin). A stock solution of 1 mM test substance in DMSO was diluted to the desired concentration with phosphate buffer-1% BSA. 40 μl of microsomes were mixed with 20 μl of the solution of the test substance and the reaction was subsequently started with 20 μl of the [^14 C]R,S-MOS solution. The final conditions were: 0.4 mg/ml of microsomal proteins and […] of [^14 C]R,S-MOS in phosphate buffer, pH 7.4, containing 0.5% albumin, DMSO <0.1% and ethanol <2%, in a total volume of 80 μl.
After 1 hour at 37° C. the reaction was stopped by the addition of 0.6 ml of 10% KOH-methanol, 0.7 ml of water and 0.1 ml of hexane:ether (1:1, v/v) which contained 25 μg of non-radioactive MOS and 25 μg of lanosterol as the carrier. After shaking 1 ml of hexane:ether (1:1, v/v) was added to each test tube, these were again shaken and then centrifuged. The upper phase was transferred into a glass test tube, the lower phase was again extracted with hexane:ether and combined with the first extract. The entire extract was evaporated to dryness with nitrogen, the residue was suspended in 50 μl of hexane:ether and applied to a silica gel plate. Chromatographic separation was effected in hexane:ether (1:1, v/v) as the eluent. […] After drying radioactive MOS and lanosterol were observed on the silica gel plate. The ratio of MOS to lanosterol was determined from the radioactive bands in order to determine the OSC inhibition.
The test was carried out on the one hand with a constant test substance concentration of 100 nM and the percentage OSC inhibition against controls was calculated. In addition, the test was carried out with different test substance concentrations and subsequently the IC50 value was calculated, i.e. the concentration required to reduce the conversion of MOS into lanosterol to 50% of the control value.

Candida albicans = assay: Antifungal activity in vitro, C. albicans (microdilution); assay type: cell-based; conditions: 27° C.
Procedure: (§1) Antifungal activity in vitro The compounds were tested for antifungal activity against Candida albicans, Cryptococcus neoformans and Aspergillus fumigatus using a microdilution method on microtitre plates (96 wells per plate). Yeast supplemented with 1% glucose and 0.25% di-potassium phosphate was used for the three fungal strains. The fungal cells were inoculated at 3×10^4 CFU (Colony Forming Unit) in […] of medium per well. The medium contained increasing concentrations of test substance. After incubation at 27° C. for 24 or 48 hours the turbidity in each well was measured by a microtitre plate reader. The growth inhibition was calculated in comparison to (without test substance). The IC50 value given in the following Table is the concentration of test substance at which the growth is inhibited by 50%.

Cryptococcus neoformans = assay: Antifungal activity in vitro, C. neoformans (microdilution); assay type: cell-based; conditions: 48 hours, 27° C., read-out: IC50 for C. neoformans after 48 hours (growth inhibition)
Procedure: as §1

Aspergillus fumigatus = assay: Antifungal activity in vitro, A. fumigatus (microdilution); assay type: cell-based; conditions: 48 hours, 27° C., read-out: IC50 for A. fumigatus after 48 hours (growth inhibition)
Procedure: as §1

[2] = Cholesterol lowering in fat-fed hamsters; assay type: in vivo, Male golden hamsters; conditions: 200 μmol (about 70-120 mg/kg/day) in diet, 10 days
Procedure: Cholesterol lowering in fat-fed hamsters
Male golden hamsters kept individually were pre-treated for 7 days with a diet containing grated coconut (40 cal. % fat). The animals were then divided into groups each comprising 5 animals. During the treatment the animals were maintained on the same diet. Each test substance was firstly homogenized in 9 ml of water and subsequently mixed with the milled diet. The controls received only feed converted into a paste with water. The animals were treated for 10 days with a test substance dosage of 200 μmol (about 70-120 mg/kg/day). Blood samples (200 μl) were removed via the jugular vein under light anaesthesia on the last day of the pretreatment and one day after the last administration of test substance. The plasma cholesterol concentration was determined using a colorimetric enzyme method. The plasma lipoproteins were separated by exclusion chromatography (Hennes et al., Science Tools, 36, 1992, 10-12). The total cholesterol was determined in each fraction using a fluorometric enzyme method (Gamble et al., J. Lipid Res., 19, 1978, 1068-1071) in order to calculate the amount of cholesterol in the LDL and HDL fractions. The activity on plasma cholesterol and LDL and HDL cholesterol, expressed in percent of the control animals, for the products of Examples 8a and 12 is reproduced in the following Table: […]

[3] = 24 hrs., read-out: IC50 for C. albicans after 24 hrs. (growth inhibition)
[4] = 48 hrs., read-out: IC50 for C. albicans after 48 hrs. (growth inhibition)

inhibition at 0.1 µM [1]	IC50 [1]	SMILES	also measured
54%		C=CCN(C)C/C=C/COc1ccc2c(CCC=C(C)C)nn(C)c2c1 [Example 32h, (E)-allyl-methyl-[4-[1-methyl-3-(4-methyl-pent-3-enyl)-1H-indazol-6-yloxy]-but-2-enyl]-amine]	
75%		C=CCN(C)CCCCCCOc1ccc2c(CCC=C(C)C)nn(C)c2c1 [Example 32e, allyl-methyl-[6-[1-methyl-3-(4-methyl-pent-3-enyl)-1H-indazol-6-yloxy]-hexyl]amine]	
		C=CCN(C)CCCCCCOc1ccc2c(c1)CCNC2c1ccc(Br)cc1 (racemic) [Example 21, (RS)-allyl-[6-[1-(4-bromo-phenyl)-1,2,3,4-tetrahydro-isoquinolin-6-yloxy]-hexyl]-methyl-amine]	IC50 (Candida albicans; [3]): < 0.32 µg/mL; IC50 (Candida albicans; [4]): 1.3 µg/mL (≈ 2.84 µM); IC50 (Cryptococcus neoformans): < 0.32 µg/mL; IC50 (Aspergillus fumigatus): 4.1 µg/mL (≈ 8.96 µM)
85%		C=CCN(C)CCCCCCOc1ccc2c(-c3ccc(Br)cc3)nncc2c1 [Example 29, allyl-[6-[1-(4-bromo-phenyl)-phthalazin-6-yloxy]-hexyl]-methyl-amine]	
99%	4 nM	C=CCN(C)CCCCCCOc1ccc2c(-c3ccc(Br)cc3)csc2c1 [Example 3, allyl-[6-[3-(4-bromo-phenyl)-benzo[b]thiophen-6-yloxy]-hexyl]methyl-amine]	
92%	1.65 nM	C=CCN(C)C/C=C/COc1ccc2c(-c3ccc(Br)cc3)nsc2c1 [Example 2a, (E)-allyl-[4-[3-(4-bromo-phenyl)-benzo[d]isothiazol-6-yloxy]-but-2-enyl]-methyl-amine]	
55%		CN(CCCCCCOc1ccc2c(-c3ccc(Br)cc3)nn(C)c2c1)C1CC1 [Example 32i, [6-[3-(4-bromo-phenyl)-1-methyl-1H-indazol-6-yloxy]-hexyl]-cyclopropyl-methyl-amine]	
84%		C=CCN(C)CCCCCCOc1ccc2c(-c3ccc(Br)cc3)ccnc2c1 [Example 38, Allyl-[6-[4-(4-bromo-phenyl)-quinolin-7-yloxy]-hexyl]-methyl-amine]	
30%		C=CCN(C)CCCCCCOc1ccc(-c2noc3cc(Br)ccc23)cc1 [Example 14]	
95%	2.1 nM	C=CCN(C)C/C=C/COc1ccc2c(c1)CCN=C2c1ccc(Br)cc1 [Example 26, (E)-allyl-[4-[1-(4-bromo-phenyl)-3,4-dihydro-isoquinolin-6-yloxy]-but-2-enyl]-methyl-amine]	
99%		C=CCN(C)CCCCCCOc1ccc2c(-c3ccc(Br)cc3)nccc2c1 [Example 23, allyl-[6-[1-(4-bromo-phenyl)-isoquinolin-6-yloxy]-hexyl]-methyl-amine]	HDL cholesterol (plasma, percent of control animals) [2]: -2%; LDL cholesterol (plasma, percent of control animals) [2]: -23%; Total cholesterol (plasma, percent of control animals) [2]: -15%
32%		CSCCN(C)CCCCCCOc1ccc2c(-c3ccc(Br)cc3)nsc2c1 [Example 2b]	
		C=CCN(C)CCCCCCOc1ccc2c(c1)N=CNC2c1ccc(Br)cc1 (racemic) [Example 34, (RS)-Allyl-[6-[4-(4-bromo-phenyl)-3,4-dihydro-quinazolin-7-yloxy]-hexyl]-methyl-amine]	IC50 (Candida albicans; [3]): 1.6 µg/mL (≈ 3.51 µM); IC50 (Candida albicans; [4]): 6.5 µg/mL (≈ 14.2 µM); IC50 (Cryptococcus neoformans): < 0.32 µg/mL; IC50 (Aspergillus fumigatus): 3.9 µg/mL (≈ 8.54 µM)
		C=CCN(C)CCCCCCOc1ccc2c(-c3ccc(Br)cc3)nncc2c1 [Example 29a, allyl-[6-[1-(4-bromo-phenyl)-phthalazin-6-yloxy]-hexyl]-methyl-amine]	IC50 (Candida albicans; [3]): < 0.32 µg/mL; IC50 (Candida albicans; [4]): 1.1 µg/mL (≈ 2.42 µM); IC50 (Cryptococcus neoformans): < 0.32 µg/mL; IC50 (Aspergillus fumigatus): 0.37 µg/mL (≈ 0.814 µM)
62%		C=CCN(C)CCCCCCOc1ccc2c(-c3ccc(Br)cc3)n[nH]c2c1 [Example 32k, allyl-[6-[3-(4-bromo-phenyl)-1H-indazol-6-yloxy]-hexyl]-methyl-amine]	
96%	3.7 nM	C=CCN(C)C/C=C/COc1ccc2c(c1)CON=C2c1ccc(Br)cc1 [Example 27, (E)-allyl-[4-[4-(4-bromo-phenyl)-1H-benzo[d][1,2]oxazin-7-yloxy]-but-2-enyl]-methyl-amine]	
94%	12.3 nM	C=CCN(C)CCCCCCOc1ccc2c(-c3ccc(Br)cc3)ncnc2c1 [Example 33, Allyl-[6-[4-(4-bromo-phenyl)-quinazolin-7-yloxy]-hexyl]-methyl-amine]	
62%		C=CCN(C)C/C=C/COc1ccc2c(CCC=C(C)C)nsc2c1 [Example 6, (E)-allyl-methyl-[4-[3-(4-methyl-pent-3-enyl)-benzo[d]isothiazol-6-yloxy]-but-2-enyl]-amine]	
79%	29 nM	C=CCN(C)C/C=C/COc1cc2c(cc1F)c(-c1ccc(Br)cc1)nn2C [Example 31, (E)-allyl-[4-[3-(4-bromo-phenyl)-5-fluoro-1-methyl-1H-indazol-6-yloxy]-but-2-enyl]-methyl-amine]	
61%		C=CCN(C)C/C=C/COc1ccc2c(-c3ccc(Br)cc3)noc2c1 [Example 12]	
77%	24 nM	C=CCN(C)CCCCCCOc1ccc2c(c1)OCC=C2c1ccc(Br)cc1 [Example 37, Allyl-[6-[4-(4-bromo-phenyl)-2H-chromen-7-yloxy]-hexyl]-methyl-amine]	
83%	3.6 nM	CN(C[C@@H]1C[C@H]1COc1ccc2c(-c3ccc(Br)cc3)nccc2c1)C1CC1 (racemic) [Example 39, (1RS,2RS)-[2-[1-(4-Bromo-phenyl)-isoquinolin-6-yloxymethyl]-cyclopropylmethyl]-cyclopropyl-methyl-amine]	
